Data taken from the supplement of paper PMC10883282.
Where a name gives a salt, the structure may show the parent alone. ± gives the standard deviation of the averaged measurements.

System: HT1080
Assay: relative viability vs DMSO control (72 h) (fraction); higher = more viable cells
How it was run: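 Percent growth from ATPLite readings, averaged over up to triplicate wells, was used as relative viability. Sarcoma cell lines were seeded into 384-well plates for 80–90% confluence, dosed after 24 h, and kept 72 h at 37 °C, 5% CO2. Data were rescaled to a range where 1 is full and 0 is none.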

Compound	relative viability (0.00017 µM)	relative viability (0.00051 µM)	relative viability (0.00152 µM)	relative viability (0.00457 µM)	relative viability (0.01372 µM)	relative viability (0.04115 µM)	relative viability (0.1235 µM)	relative viability (0.3704 µM)	relative viability (1.111 µM)	relative viability (3.333 µM)	relative viability (10 µM)
O=C(Nc1cnn2ccc(N3CCC[C@@H]3c3cc(F)ccc3F)nc12)N1CC[C@H](O)C1 [Larotrectinib]	1.08 ± 0.042	1.05 ± 0.035	1.05 ± 0.039	1.05 ± 0.054	1.07 ± 0.038	1.06 ± 0.058	1.07 ± 0.014	1.09 ± 0.036	1.04 ± 0.028	1.06 ± 0.022	1.03 ± 0.022
COCc1c(-c2cc3cc(C)cc(OC)c3s2)c2c(N)ncnn2c1CN1CCNC(=O)C1 [Rogaratinib]	1.08 ± 0.023	1.09 ± 0.041	1.07 ± 0.028	1.038 ± 0.0047	1.05 ± 0.013	1.06 ± 0.017	1.05 ± 0.017	1.07 ± 0.04	1.084 ± 0.0066	1.09 ± 0.024	1.06 ± 0.032
Cn1cnc2c(F)c(Nc3ccc(Br)cc3F)c(C(=O)NOCCO)cc21 [Binimetinib]	1.1 ± 0.019	1.09 ± 0.031	1.09 ± 0.021	1.03 ± 0.026	1.031 ± 0.0075	0.8738 ± 0.0029	0.752 ± 0.017	0.626 ± 0.015	0.577 ± 0.026	0.518 ± 0.034	0.451 ± 0.032
Cn1cc(-c2cc3c(N4CCN(c5ncc([C@@](C)(N)c6ccc(F)cc6)cn5)CC4)ncnn3c2)cn1 [Avapritinib]	0.967 ± 0.065	1.03 ± 0.019	0.98 ± 0.042	1.01 ± 0.041	1 ± 0.017	1.01 ± 0.039	1.03 ± 0.048	1.01 ± 0.013	0.908 ± 0.029	0.905 ± 0.014	0.826 ± 0.023
C[C@]1(O)C[C@@H](c2nc(-c3ccc4ccc(-c5ccccc5)nc4c3)c3c(N)nccn32)C1 [Linsitinib]	1.044 ± 0.0049	1.09 ± 0.025	1.045 ± 0.0029	1.057 ± 0.009	1.04 ± 0.047	1.03 ± 0.018	1.03 ± 0.023	0.988 ± 0.025	0.968 ± 0.043	0.968 ± 0.025	0.881 ± 0.017
Cc1cc(Nc2ncnc3ccc(NC4=NC(C)(C)CO4)cc23)ccc1Oc1ccn2ncnc2c1 [Tucatinib]	1.06 ± 0.043	1.071 ± 0.0057	1.108 ± 0.0063	1.09 ± 0.054	1.1 ± 0.027	1.0875 ± 7.1e-05	1.08 ± 0.032	1.067 ± 0.01	1.05 ± 0.011	1.06 ± 0.026	0.948 ± 0.012
Nc1cc(C(F)(F)F)c(-c2cc(N3CCOCC3)nc(N3CCOCC3)n2)cn1 [Buparlisib]	1.01 ± 0.077	1.02 ± 0.024	1.018 ± 0.0073	1.05 ± 0.036	1.04 ± 0.015	1.03 ± 0.022	1.03 ± 0.039	1.07 ± 0.013	1 ± 0.013	0.11 ± 0.0037	0.0244 ± 0.0015
C[C@@H]1CCN(C(=O)CC#N)C[C@@H]1N(C)c1ncnc2[nH]ccc12 [Tofacitinib]	1.06 ± 0.044	1.1 ± 0.035	1.07 ± 0.025	1.077 ± 0.0086	1.1 ± 0.022	1.08 ± 0.018	1.08 ± 0.085	1.1 ± 0.04	1.07 ± 0.012	1.03 ± 0.027	1.02 ± 0.024
COc1cc2/c(=N/c3ccc(Br)cc3F)nc[nH]c2cc1OCC1CCN(C)CC1 [Vandetanib]	1.02 ± 0.015	1.02 ± 0.026	1.03 ± 0.026	1.03 ± 0.022	1.03 ± 0.026	1.02 ± 0.034	1.02 ± 0.043	1.03 ± 0.031	1.02 ± 0.02	0.962 ± 0.04	0.326 ± 0.022
CCCS(=O)(=O)Nc1ccc(F)c(C(=O)c2c[nH]c3ncc(-c4ccc(Cl)cc4)cc23)c1F [Vemurafenib]	1.1 ± 0.032	1.07 ± 0.049	1.09 ± 0.05	1.08 ± 0.031	1.08 ± 0.044	1.07 ± 0.045	1.07 ± 0.043	1.08 ± 0.04	1.13 ± 0.031	1.04 ± 0.023	0.663 ± 0.25
C=CC(=O)N1CCC([C@@H]2CCNc3c(C(N)=O)c(-c4ccc(Oc5ccccc5)cc4)nn32)CC1 [Zanubrutinib]	1.04 ± 0.022	1.05 ± 0.022	1.04 ± 0.04	1.03 ± 0.024	1.03 ± 0.026	1.03 ± 0.031	1.03 ± 0.028	1.05 ± 0.071	1.017 ± 0.0087	1.02 ± 0.033	1.02 ± 0.026
CC(=O)Nc1cccc(-n2c(=O)n(C3CC3)c(=O)c3c(Nc4ccc(I)cc4F)n(C)c(=O)c(C)c32)c1 [Trametinib]	1.1 ± 0.022	1.119 ± 0.0055	1.039 ± 0.0014	0.981 ± 0.041	0.638 ± 0.029	0.537 ± 0.017	0.478 ± 0.032	0.377 ± 0.011	0.351 ± 0.02	0.334 ± 0.018	0.296 ± 0.014
C=CC(=O)N1CCC[C@@H](n2nc(-c3ccc(Oc4ccccc4)cc3)c3c(N)ncnc32)C1 [Ibrutinib]	1.07 ± 0.019	1.11 ± 0.019	1.1 ± 0.012	1.05 ± 0.012	1.1 ± 0.022	1.06 ± 0.055	1.06 ± 0.015	1.07 ± 0.025	1.12 ± 0.027	1.14 ± 0.022	1.101 ± 0.0017
Cc1ccc(F)c(NC(=O)Nc2ccc(-c3cccc4[nH]nc(N)c34)cc2)c1 [Linifanib]	1.08 ± 0.022	1.08 ± 0.026	1.07 ± 0.017	1.033 ± 0.0064	1.06 ± 0.02	1.07 ± 0.037	1.048 ± 0.0077	1.08 ± 0.0094	1.08 ± 0.031	1.08 ± 0.03	1.05 ± 0.015
CC[C@H](Nc1ncnc2[nH]cnc12)c1nc2cccc(F)c2c(=O)n1-c1ccccc1 [Idelalisib]	1.1 ± 0.032	1.1 ± 0.025	1.07 ± 0.017	1.12 ± 0.039	1.0913 ± 0.00051	1.12 ± 0.021	1.09 ± 0.038	1.12 ± 0.051	1.07 ± 0.027	1.08 ± 0.014	1.08 ± 0.04
CC(C)(C)c1cc(NC(=O)Nc2ccc(-c3cn4c(n3)sc3cc(OCCN5CCOCC5)ccc34)cc2)no1 [Quizartinib]	1.12 ± 0.013	1.09 ± 0.016	1.087 ± 0.0076	1.08 ± 0.029	1.07 ± 0.014	1.11 ± 0.034	1.1 ± 0.035	1.11 ± 0.012	1.04 ± 0.042	0.907 ± 0.048	0.806 ± 0.042
CNC(=O)c1cc(Oc2ccc(NC(=O)Nc3ccc(Cl)c(C(F)(F)F)c3)c(F)c2)ccn1 [Regorafenib]	1.1 ± 0.055	1.128 ± 0.0073	1.09 ± 0.012	1.09 ± 0.012	1.12 ± 0.028	1.11 ± 0.056	1.1 ± 0.02	1.08 ± 0.021	1.05 ± 0.014	0.952 ± 0.028	0.542 ± 0.062
CNC(=O)c1ccc(-c2cnc3ncc(Cc4ccc5ncccc5c4)n3n2)cc1F [Capmatinib]	1.06 ± 0.022	1.06 ± 0.041	1.06 ± 0.018	1.06 ± 0.014	1.06 ± 0.012	1.04 ± 0.019	1.05 ± 0.014	1.05 ± 0.028	1.044 ± 0.01	0.989 ± 0.015	1.005 ± 0.0012
COc1cccc2c1C(=O)c1c(O)c3c(c(O)c1C2=O)C[C@@](O)(C(=O)CO)C[C@@H]3O[C@H]1C[C@H](N)[C@H](O)[C@H](C)O1 [Doxorubicin Hydrochloride]	1.09 ± 0.015	1.071 ± 0.0078	1.04 ± 0.025	1.05 ± 0.024	0.97 ± 0.028	0.707 ± 0.01	0.5504 ± 0.0046	0.117 ± 0.0055	0.105 ± 0.0013	0.183 ± 0.0044	0.115 ± 0.0043
CO[C@H]1C[C@@H]2CC[C@@H](C)[C@@](O)(O2)C(=O)C(=O)N2CCCC[C@H]2C(=O)O[C@H]([C@H](C)C[C@@H]2CC[C@@H](OP(C)(C)=O)[C@H](OC)C2)CC(=O)[C@H](C)/C=C(\C)[C@@H](O)[C@@H](OC)C(=O)[C@H](C)C[C@H](C)/C=C/C=C/C=C/1C [Ridaforolimus]	1.1 ± 0.019	1.08 ± 0.02	1.13 ± 0.047	1.08 ± 0.03	1.03 ± 0.011	0.99 ± 0.028	0.983 ± 0.034	0.9952 ± 0.0077	0.9672 ± 0.0023	0.9615 ± 0.0033	0.934 ± 0.028
Cc1cc(C)c(/C=C2\C(=O)Nc3ccccc32)[nH]1 [Semaxanib]	0.923 ± 0.051	0.964 ± 0.038	0.94 ± 0.023	0.945 ± 0.018	0.926 ± 0.022	0.946 ± 0.049	0.893 ± 0.059	0.921 ± 0.018	0.928 ± 0.023	0.939 ± 0.034	0.888 ± 0.065
CN1CCC(COc2cnc(-c3cccc(Cn4nc(-c5cccc(C#N)c5)ccc4=O)c3)nc2)CC1 [Tepotinib]	1.1 ± 0.066	1.09 ± 0.025	1.12 ± 0.013	1.081 ± 0.0059	1.092 ± 0.0041	1.07 ± 0.016	1.07 ± 0.043	1.07 ± 0.059	1.04 ± 0.034	1.032 ± 0.0023	0.8618 ± 0.0058
COc1cc2c(Oc3ccc4[nH]c(C)cc4c3F)ncnc2cc1OCCCN1CCCC1 [Cediranib]	1.08 ± 0.022	1.08 ± 0.015	1.06 ± 0.011	1.095 ± 0.0091	1.1 ± 0.011	1.07 ± 0.031	1.08 ± 0.016	1.1 ± 0.015	1.1 ± 0.027	1.08 ± 0.035	1.06 ± 0.024
C[C@@H](c1ccc2nccn2c1)n1nnc2ncc(-c3cnn(C)c3)nc21 [Volitinib]	1.02 ± 0.043	1.06 ± 0.016	1.07 ± 0.02	1.06 ± 0.031	1.06 ± 0.029	1.04 ± 0.011	1.02 ± 0.022	1.05 ± 0.034	1.06 ± 0.012	0.992 ± 0.016	0.948 ± 0.053
CC1(C)CNc2cc(NC(=O)c3cccnc3NCc3ccncc3)ccc21 [Motesanib]	1.03 ± 0.036	0.975 ± 0.032	1.03 ± 0.016	1.03 ± 0.023	1.04 ± 0.041	1 ± 0.04	1.02 ± 0.0035	0.98 ± 0.012	1.01 ± 0.018	0.9961 ± 0.0086	0.976 ± 0.015
N#CC[C@H](C1CCCC1)n1cc(-c2ncnc3[nH]ccc23)cn1 [Ruxolitinib]	1.04 ± 0.037	1.034 ± 0.0099	1.07 ± 0.012	1.05 ± 0.068	1.06 ± 0.049	1.03 ± 0.017	1.05 ± 0.027	1.04 ± 0.04	1.04 ± 0.021	1.04 ± 0.035	1.02 ± 0.087
Cc1nc(NC(=O)N2CCC[C@H]2C(N)=O)sc1-c1ccnc(C(C)(C)C(F)(F)F)c1 [Alpelisib]	1.06 ± 0.032	1.05 ± 0.027	1.05 ± 0.022	1.08 ± 0.031	1.01 ± 0.014	1.04 ± 0.018	1 ± 0.023	1.02 ± 0.037	0.994 ± 0.03	0.977 ± 0.034	0.889 ± 0.016
CN1CCN(c2ccc3nc(-c4c(N)c5c(F)cccc5[nH]c4=O)[nH]c3c2)CC1 [Dovitinib]	1.1 ± 0.047	1.09 ± 0.053	1.05 ± 0.046	1.1 ± 0.028	1.09 ± 0.013	1.095 ± 0.0071	1.11 ± 0.023	1.155 ± 0.0091	0.975 ± 0.017	0.632 ± 0.023	0.154 ± 0.08
